This note sets out measurements from patent publication US20100035867A1 (priority 2006, published 2010).

In test [1] the target is anthrax edema toxin (protective antigen and edema factor) (Bacillus anthracis, UniProt P40136). It counts as cell-based.
Test [2] concerns the target T1, guanylyl cyclase type B (GC-B) (Rattus norvegicus, UniProt P16067).
T1 sequence (P16067 17-1047): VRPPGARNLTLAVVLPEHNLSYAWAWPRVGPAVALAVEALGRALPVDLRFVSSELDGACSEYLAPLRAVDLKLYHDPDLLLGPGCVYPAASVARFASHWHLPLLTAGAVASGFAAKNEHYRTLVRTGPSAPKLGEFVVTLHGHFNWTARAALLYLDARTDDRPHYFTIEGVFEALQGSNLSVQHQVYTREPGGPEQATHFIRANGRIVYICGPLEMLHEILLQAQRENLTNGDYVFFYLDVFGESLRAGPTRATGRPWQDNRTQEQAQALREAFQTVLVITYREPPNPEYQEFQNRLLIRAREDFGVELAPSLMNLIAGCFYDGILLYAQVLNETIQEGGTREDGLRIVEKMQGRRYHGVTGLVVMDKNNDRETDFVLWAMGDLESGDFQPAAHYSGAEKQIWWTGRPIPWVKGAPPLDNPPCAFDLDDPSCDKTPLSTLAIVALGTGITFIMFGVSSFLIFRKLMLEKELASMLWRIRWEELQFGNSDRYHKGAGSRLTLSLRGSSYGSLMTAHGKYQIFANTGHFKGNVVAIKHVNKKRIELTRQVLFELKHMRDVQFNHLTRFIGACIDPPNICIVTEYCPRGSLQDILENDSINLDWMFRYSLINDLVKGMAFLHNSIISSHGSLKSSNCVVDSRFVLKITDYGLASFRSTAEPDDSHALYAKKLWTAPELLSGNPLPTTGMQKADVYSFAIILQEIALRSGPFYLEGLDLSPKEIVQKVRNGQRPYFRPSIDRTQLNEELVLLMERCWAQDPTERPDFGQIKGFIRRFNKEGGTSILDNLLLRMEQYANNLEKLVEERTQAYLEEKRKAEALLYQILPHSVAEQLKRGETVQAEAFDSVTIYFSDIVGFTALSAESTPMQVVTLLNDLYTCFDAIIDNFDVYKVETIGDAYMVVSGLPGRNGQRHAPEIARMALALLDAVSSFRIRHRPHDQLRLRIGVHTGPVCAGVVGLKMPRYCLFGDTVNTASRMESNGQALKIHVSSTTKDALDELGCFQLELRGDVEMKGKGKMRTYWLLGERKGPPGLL
Nature of the test: CNP-induced cyclic GMP accumulation in RFL-6 fibroblast cells. The conditions noted are these: RFL-6 cells, 1 μM CNP, 50 μM compound.

In test [3] the target is guanylyl cyclase type C (GC-C) (Homo sapiens, UniProt P25092). Nature of the test: STa-induced activation of GC-C in T84 cells (cyclic GMP accumulation, ELISA). More on the design: endogenous in cells; host or cells: T84 cells. It is filed as cell-based.
Sequence of guanylyl cyclase type C (GC-C) (P25092 24-1073): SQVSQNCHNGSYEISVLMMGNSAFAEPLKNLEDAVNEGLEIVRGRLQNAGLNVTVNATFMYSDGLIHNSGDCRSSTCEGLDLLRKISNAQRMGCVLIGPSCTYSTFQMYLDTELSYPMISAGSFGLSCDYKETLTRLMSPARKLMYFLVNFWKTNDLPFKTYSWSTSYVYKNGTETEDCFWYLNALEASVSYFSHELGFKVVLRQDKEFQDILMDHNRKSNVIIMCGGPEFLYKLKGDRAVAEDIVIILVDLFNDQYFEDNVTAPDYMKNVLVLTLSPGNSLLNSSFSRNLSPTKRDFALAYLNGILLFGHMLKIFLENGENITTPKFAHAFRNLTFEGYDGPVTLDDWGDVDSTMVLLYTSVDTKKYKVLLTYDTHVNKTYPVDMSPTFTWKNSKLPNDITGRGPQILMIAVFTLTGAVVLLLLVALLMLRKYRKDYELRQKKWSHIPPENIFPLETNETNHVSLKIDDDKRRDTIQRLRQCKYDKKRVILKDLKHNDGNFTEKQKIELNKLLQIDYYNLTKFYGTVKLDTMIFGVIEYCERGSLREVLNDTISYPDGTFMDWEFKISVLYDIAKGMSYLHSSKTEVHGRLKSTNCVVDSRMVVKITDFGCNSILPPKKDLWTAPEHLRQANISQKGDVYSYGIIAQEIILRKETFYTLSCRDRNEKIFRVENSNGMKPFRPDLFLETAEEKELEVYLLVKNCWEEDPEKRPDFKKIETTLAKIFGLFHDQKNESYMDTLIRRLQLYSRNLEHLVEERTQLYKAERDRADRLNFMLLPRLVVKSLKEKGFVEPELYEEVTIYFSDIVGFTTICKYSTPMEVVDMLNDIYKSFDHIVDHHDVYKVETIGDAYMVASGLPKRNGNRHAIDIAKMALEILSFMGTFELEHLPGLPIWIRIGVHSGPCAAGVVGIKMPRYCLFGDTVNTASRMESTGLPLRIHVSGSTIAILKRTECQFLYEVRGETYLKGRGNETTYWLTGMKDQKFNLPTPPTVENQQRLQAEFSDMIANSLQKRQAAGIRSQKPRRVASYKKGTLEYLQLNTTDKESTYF
For test [4], the target named is T2, soluble guanylyl cyclase (sGC) (Rattus norvegicus, UniProt P19686+P20595).
T2 sequence (P20595 1-619): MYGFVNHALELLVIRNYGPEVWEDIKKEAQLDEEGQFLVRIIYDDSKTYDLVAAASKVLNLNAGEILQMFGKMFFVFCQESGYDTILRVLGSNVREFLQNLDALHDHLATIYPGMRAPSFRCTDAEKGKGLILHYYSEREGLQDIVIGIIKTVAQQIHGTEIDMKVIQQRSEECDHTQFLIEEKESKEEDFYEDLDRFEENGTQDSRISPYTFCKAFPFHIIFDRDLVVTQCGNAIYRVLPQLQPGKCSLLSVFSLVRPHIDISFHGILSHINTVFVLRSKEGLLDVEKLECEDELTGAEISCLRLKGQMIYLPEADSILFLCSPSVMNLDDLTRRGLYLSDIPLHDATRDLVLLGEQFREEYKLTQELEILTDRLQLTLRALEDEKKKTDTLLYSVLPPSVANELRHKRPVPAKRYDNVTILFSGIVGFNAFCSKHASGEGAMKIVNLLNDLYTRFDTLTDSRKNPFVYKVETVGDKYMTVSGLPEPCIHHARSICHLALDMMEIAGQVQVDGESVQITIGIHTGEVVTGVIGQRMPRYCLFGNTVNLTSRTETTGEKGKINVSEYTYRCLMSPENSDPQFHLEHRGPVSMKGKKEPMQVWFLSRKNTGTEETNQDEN
T2 sequence (P19686 1-690): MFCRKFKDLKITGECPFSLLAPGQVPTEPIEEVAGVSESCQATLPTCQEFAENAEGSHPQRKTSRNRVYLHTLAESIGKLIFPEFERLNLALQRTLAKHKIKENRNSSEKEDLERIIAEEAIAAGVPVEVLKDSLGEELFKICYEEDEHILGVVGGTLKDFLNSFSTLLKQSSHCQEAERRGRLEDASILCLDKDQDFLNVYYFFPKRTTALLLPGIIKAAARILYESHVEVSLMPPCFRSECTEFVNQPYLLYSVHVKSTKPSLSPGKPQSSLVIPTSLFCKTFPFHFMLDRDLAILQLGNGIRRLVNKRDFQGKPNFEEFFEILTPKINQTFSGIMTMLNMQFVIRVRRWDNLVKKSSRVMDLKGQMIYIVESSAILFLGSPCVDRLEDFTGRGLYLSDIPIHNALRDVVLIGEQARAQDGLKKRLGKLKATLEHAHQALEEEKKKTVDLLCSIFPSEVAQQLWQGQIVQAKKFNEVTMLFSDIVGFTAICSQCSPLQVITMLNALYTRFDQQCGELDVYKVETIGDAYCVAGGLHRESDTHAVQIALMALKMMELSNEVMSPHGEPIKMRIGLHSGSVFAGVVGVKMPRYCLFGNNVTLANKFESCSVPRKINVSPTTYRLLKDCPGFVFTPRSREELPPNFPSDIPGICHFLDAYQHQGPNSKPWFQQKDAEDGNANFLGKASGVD
As to the kind of experiment: Nitric oxide donor-induced cyclic GMP accumulation in RFL-6 fibroblast cells. To be noted: RFL-6 cells, 10 μM benzotrifuroxan, 50 μM compound.

In a further test the test system is rabbit intestinal loop. Nature of the test: Liquid secretion induced by STa in a rabbit intestinal loop model. It is filed as in vivo. As to the method: The test was performed by the method known in the art (Alcantara, C. S.; Jin, X. H.; Brito, G. A.; Carneiro-Filho, B. A.; Barrett, L. J.; Carey, R. M.; Guerrant, R. L., Angiotensin II subtype 1 receptor blockade inhibits Clostridium difficile toxin A-induced intestinal secretion in a rabbit model. J Infect Dis 2005, 191, (12), 2090-6). Volume of liquid in the loop was divided by the length of the loop and the normalized value was used to assess liquid accumulation in the intestinal lumen.

Sequence of anthrax edema toxin (protective antigen and edema factor) (P40136 whole entry, looked up): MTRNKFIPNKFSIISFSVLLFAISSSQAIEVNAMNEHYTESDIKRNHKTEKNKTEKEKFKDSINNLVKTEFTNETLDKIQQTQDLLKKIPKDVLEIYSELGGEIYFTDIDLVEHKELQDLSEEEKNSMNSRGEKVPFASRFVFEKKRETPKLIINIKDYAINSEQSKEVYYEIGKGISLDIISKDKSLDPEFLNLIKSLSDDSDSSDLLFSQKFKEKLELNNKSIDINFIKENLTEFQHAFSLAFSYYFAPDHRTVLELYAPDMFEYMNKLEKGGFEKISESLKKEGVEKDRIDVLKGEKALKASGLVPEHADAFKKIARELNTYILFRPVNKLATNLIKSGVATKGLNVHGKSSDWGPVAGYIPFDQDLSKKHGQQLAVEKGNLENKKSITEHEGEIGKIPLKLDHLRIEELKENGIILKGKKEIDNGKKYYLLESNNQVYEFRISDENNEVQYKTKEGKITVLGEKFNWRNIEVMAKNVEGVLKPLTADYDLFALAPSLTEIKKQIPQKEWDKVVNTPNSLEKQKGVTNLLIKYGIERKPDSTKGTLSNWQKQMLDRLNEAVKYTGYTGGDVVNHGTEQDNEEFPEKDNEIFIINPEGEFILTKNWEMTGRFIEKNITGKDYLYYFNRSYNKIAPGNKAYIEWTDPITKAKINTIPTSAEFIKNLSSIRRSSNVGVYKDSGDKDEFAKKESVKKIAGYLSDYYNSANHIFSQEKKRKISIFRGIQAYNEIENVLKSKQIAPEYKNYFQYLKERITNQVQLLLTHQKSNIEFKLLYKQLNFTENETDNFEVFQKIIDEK

Turning to `Cn1c2c(c(=O)n(C)c1=O)C(c1cccc(Br)c1)C1=C(N2)c2ccccc2C1=O` (centres unmarked) [compound IIb], the “cyclic AMP accumulation” value in test [1] was 62.1±6.3 pmol/mg protein. The “decrease of cyclic AMP accumulation” value in test [1] came to 55.2%. The “inhibition of cyclic GMP accumulation (FIG. 6)” value in test [2] and in test [4] was “inhibition” throughout. For the same molecule, the “inhibition of STa-induced activation of GC-C (FIG. 2)” value in test [3] is “inhibition”. 50 µM produced 84.7% inhibition in test [3] (100 nM STa, 50 μM compound). Besides, the “level of cyclic GMP” value in test [3] (100 nM STa, 50 μM compound, vehicle 124±10, basal 6±2) is 24±6 pmol/mg protein. For the same molecule, the IC50 in test [3] (100 nM STa, read-out: IC50, inhibition of cyclic GMP synthesis) is 3.4 µM. Besides, in test [3] (increasing STa 1 nM to 5 μM, 50 μM compound), the “STa concentration-dependent accumulation of cyclic GMP” value was “significantly suppressed”. In the test on rabbit intestinal loop (rabbit loops injected with 100 nM STa and 50 μM compound, STa+vehicle 0.62±0.05, PBS 0.18±0.03), the “liquid accumulation (volume per loop length)” value was 0.15 ± 0.06 mL/cm. In the test with rabbit intestinal loop (rabbit loops, 100 nM STa, 50 μM compound), the “inhibition of STa-stimulated liquid accumulation” value was “completely”.
